What was measured:
[1] = test system: barnyardgrass; experiment: Test A pre-/postemergence herbicide test; assay type: in vivo, Echinochloa crus-galli
How it was run: (§1)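 Pre: seeded sandy loam, directed soil spray, compound in non-phytotoxic solvent + surfactant. Post: 1–2-leaf plants (2–10 cm), sprayed to runoff. Greenhouse ~10 d; visual injury vs untreated, 0–100 scale.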

[2] = test system: large crabgrass; experiment: Test A pre-/postemergence herbicide test; assay type: in vivo, Digitaria sanguinalis
How it was run: as §1

[3] = test system: giant foxtail; experiment: Test A pre-/postemergence herbicide test; assay type: in vivo, Setaria faberi
How it was run: as §1

[4] = test system: morningglory; experiment: Test A pre-/postemergence herbicide test; assay type: in vivo, Ipomoea spp.
How it was run: as §1

[5] = test system: redroot pigweed; experiment: Test A pre-/postemergence herbicide test; assay type: in vivo, Amaranthus retroflexus
How it was run: as §1

[6] = test system: velvetleaf; experiment: Test A pre-/postemergence herbicide test; assay type: in vivo, Abutilon theophrasti
How it was run: as §1

[7] = test system: barnyardgrass; experiment: Test B pre-/postemergence herbicide test; assay type: in vivo, Echinochloa crus-galli; conditions: for Plant response rating, Barnyardgrass: preemergence; for Barnyardgrass plant response rating: postemergence, visual rating, scale 0 (no effect) to 100 (complete control)
How it was run: (§2)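 Evaluation is visual, comparing treated with control plants on a scale where 0 means no effect and 100 means full control. Treatments were preemergence, or postemergence on seedlings 2–18 cm tall, and held 13–15 days in the greenhouse.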

[8] = test system: Surinam grass; experiment: Test B pre-/postemergence herbicide test; assay type: in vivo, Urochloa decumbens; conditions: for Plant response rating, Surinam Grass: preemergence; for Surinam Grass plant response rating: postemergence, visual rating, scale 0 (no effect) to 100 (complete control)
How it was run: (§3)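 Visual rating, 0 (no effect) to 100 (complete control), versus untreated controls after 13–15 d in greenhouse. Pre- and postemergence applications (postemergence plants 2–18 cm, 1–4 leaves); flooded paddy arm at 2-leaf stage. Compounds in non-phytotoxic solvent plus surfactant.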

[9] = test system: cocklebur; experiment: Test B pre-/postemergence herbicide test; assay type: in vivo, Xanthium strumarium; conditions: for Plant response rating, Cocklebur: preemergence; for Cocklebur plant response rating: postemergence, visual rating, scale 0 (no effect) to 100 (complete control)
How it was run: as §2

[10] = test system: corn; experiment: Test B pre-/postemergence herbicide test; assay type: in vivo, Zea mays; conditions: for Plant response rating, Corn: preemergence; for Corn plant response rating: postemergence, visual rating, scale 0 (no effect) to 100 (complete control)
How it was run: as §3

[11] = test system: large crabgrass; experiment: Test B pre-/postemergence herbicide test; assay type: in vivo, Digitaria sanguinalis; conditions: for Plant response rating, Crabgrass, Large: preemergence; for Crabgrass, Large plant response rating: postemergence, visual rating, scale 0 (no effect) to 100 (complete control)
How it was run: as §3

[12] = test system: giant foxtail; experiment: Test B pre-/postemergence herbicide test; assay type: in vivo, Setaria faberi; conditions: for Plant response rating, Foxtail, Giant: preemergence; for Foxtail, Giant plant response rating: postemergence, visual rating, scale 0 (no effect) to 100 (complete control)
How it was run: as §3

[13] = test system: lambsquarters; experiment: Test B pre-/postemergence herbicide test; assay type: in vivo, Chenopodium album; conditions: for Lambsquarters plant response rating: postemergence, visual rating, scale 0 (no effect) to 100 (complete control)
How it was run: as §3

[14] = test system: morningglory; experiment: Test B pre-/postemergence herbicide test; assay type: in vivo, Ipomoea coccinea; conditions: for Plant response rating, Morningglory: preemergence; for Morningglory plant response rating: postemergence, visual rating, scale 0 (no effect) to 100 (complete control)
How it was run: as §2

[15] = test system: pigweed; experiment: Test B pre-/postemergence herbicide test; assay type: in vivo, Amaranthus retroflexus; conditions: for Plant response rating, Pigweed: preemergence; for Pigweed plant response rating: postemergence, visual rating, scale 0 (no effect) to 100 (complete control)
How it was run: as §3

[16] = test system: rice; experiment: Test B pre-/postemergence herbicide test; assay type: in vivo, Oryza sativa; conditions: preemergence
How it was run: as §3

[17] = test system: velvetleaf; experiment: Test B pre-/postemergence herbicide test; assay type: in vivo, Abutilon theophrasti; conditions: for Plant response rating, Velvetleaf: preemergence; for Velvetleaf plant response rating: postemergence, visual rating, scale 0 (no effect) to 100 (complete control)
How it was run: as §3

[18] = test system: blackgrass; experiment: Test B postemergence herbicide test; assay type: in vivo, Alopecurus myosuroides; conditions: postemergence, visual rating, scale 0 (no effect) to 100 (complete control)
How it was run: (§4)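 Each value is a visual 0–100 response rating taken against controls 13 to 15 days after treatment in the greenhouse. Plants received formulated chemical postemergence at the 1- to 4-leaf stage or, in flooded paddy, at the 2-leaf stage.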

[19] = test system: wheat; experiment: Test B postemergence herbicide test; assay type: in vivo, Triticum aestivum; parameters: key to Wheat plant response rating: 0 = no effect, 100 = complete control; conditions: postemergence, 500 g ai/ha; visual rating, scale 0 (no effect) to 100 (complete control)
How it was run: (§5)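 Postemergence plants were sprayed with formulated test chemicals at 2 to 18 cm height (1- to 4-leaf stage); paddy species were grown to the 2-leaf stage. After 13 to 15 days in a greenhouse, injury was rated visually against untreated controls on a 0–100 scale (0 = no effect, 100 = complete control).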

[20] = test system: wild oat; experiment: Test B postemergence herbicide test; assay type: in vivo, Avena fatua; conditions: postemergence, visual rating, scale 0 (no effect) to 100 (complete control)
How it was run: as §5

[21] = test system: rice; experiment: Test B flooded paddy test; assay type: in vivo, Oryza sativa; conditions: 1000 g ai/ha, visual rating, scale 0 to 100 (0 no effect, 100 complete control), 13 to 15 days
How it was run: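 Read-out: visual comparison with controls, scored 0 to 100, where 100 means complete control and 0 no effect. Formulated chemicals were applied postemergence to plants 2–18 cm tall (1- to 4-leaf), or to flooded-paddy plants at the 2-leaf stage, then held 13 to 15 days under glass.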

[22] = test system: small flower umbrella sedge; experiment: Test B flooded paddy test; assay type: in vivo, Cyperus difformis; conditions: 1000 g ai/ha, visual rating, scale 0 to 100 (0 no effect, 100 complete control), 13 to 15 days
How it was run: as §4

[23] = test system: ducksalad; experiment: Test B flooded paddy test; assay type: in vivo, Heteranthera limosa; conditions: 1000 g ai/ha, visual rating, scale 0 to 100 (0 no effect, 100 complete control), 13 to 15 days
How it was run: as §4

[24] = test system: barnyardgrass; experiment: Test B flooded paddy test; assay type: in vivo, Echinochloa crus-galli; conditions: 1000 g ai/ha, visual rating, scale 0 to 100 (0 no effect, 100 complete control), 13 to 15 days
How it was run: as §4

[25] = Postemergence, 500 g ai/ha, 0 to 100 scale, 0 no effect, 100 complete control
[26] = Postemergence, 2000 g ai/ha, 0 to 100 scale, 0 no effect, 100 complete control
[27] = Preemergence, 500 g ai/ha, visual rating, 0 to 100 scale (0 no effect, 100 complete control)
[28] = Preemergence, 2000 g ai/ha, visual rating, 0 to 100 scale (0 no effect, 100 complete control)
[29] = preemergence, 500 g ai/ha, visual injury, 0 to 100 scale (0 no effect, 100 complete control)
[30] = 500 g ai/ha, visual rating 0-100, 0 no effect, 100 complete control
[31] = 125 g ai/ha, 0 to 100 scale, 0 is no effect, 100 is complete control

CCn1nc(C(C)(C)C)cc1C(=O)Nc1cc(C(=O)OC)cc(C)n1 [Compound 148]
Barnyardgrass plant response rating [1, 25]: 20
Plant response rating, Barnyardgrass [1, 26]: 25
Barnyardgrass plant response rating [1, 27]: 0
Barnyardgrass plant response rating [1, 28]: 20
Crabgrass, Large plant response rating [2, 25]: 5
Plant response rating, Crabgrass, Large [2, 26]: 10
Crabgrass, Large plant response rating [2, 27]: 0
Crabgrass, Large plant response rating [2, 28]: 15
Foxtail, Giant plant response rating [3, 25]: 15
Plant response rating, Foxtail, Giant [3, 26]: 15
Foxtail, Giant plant response rating [3, 27]: 0
Foxtail, Giant plant response rating [3, 28]: 10
Morningglory plant response rating [4, 25]: 15
Plant response rating, Morningglory [4, 26]: 10
Morningglory plant response rating [4, 27]: 0
Morningglory plant response rating [4, 28]: 5
Pigweed plant response rating [5, 25]: 0
Plant response rating, Pigweed [5, 26]: 15
Pigweed plant response rating [5, 28]: 25
Pigweed plant response rating [5, 29]: 0
Velvetleaf plant response rating [6, 25]: 20
Plant response rating, Velvetleaf [6, 26]: 15
Velvetleaf plant response rating [6, 28]: 10
Velvetleaf plant response rating [6, 29]: 0
Plant response rating, Barnyardgrass [7, 30]: 10
Barnyardgrass plant response rating ([7]; 125 g ai/ha): 0
Barnyardgrass plant response rating ([7]; 500 g ai/ha): 20
Plant response rating, Barnyardgrass [7, 31]: 0
Plant response rating, Surinam Grass [8, 30]: 0
Surinam Grass plant response rating ([8]; 125 g ai/ha): 10
Surinam Grass plant response rating ([8]; 500 g ai/ha): 10
Plant response rating, Surinam Grass [8, 31]: 0
Plant response rating, Cocklebur [9, 30]: 0
Cocklebur plant response rating ([9]; 125 g ai/ha): 20
Cocklebur plant response rating ([9]; 500 g ai/ha): 70
Plant response rating, Cocklebur [9, 31]: 0
Plant response rating, Corn [10, 30]: 0
Corn plant response rating ([10]; 125 g ai/ha): 10
Corn plant response rating ([10]; 500 g ai/ha): 10
Plant response rating, Corn [10, 31]: 0
Plant response rating, Crabgrass, Large [11, 30]: 0
Crabgrass, Large plant response rating ([11]; 125 g ai/ha): 10
Crabgrass, Large plant response rating ([11]; 500 g ai/ha): 10
Plant response rating, Crabgrass, Large [11, 31]: 0
Plant response rating, Foxtail, Giant [12, 30]: 20
Foxtail, Giant plant response rating ([12]; 125 g ai/ha): 10
Foxtail, Giant plant response rating ([12]; 500 g ai/ha): 10
Plant response rating, Foxtail, Giant [12, 31]: 0
Lambsquarters plant response rating ([13]; 125 g ai/ha): 10
Lambsquarters plant response rating ([13]; 500 g ai/ha): 10
Plant response rating, Lambsquarters ([13]; preemergence, 125 g ai/ha, 0 to 100 scale, 0 is no effect, 100 is complete control): 0
Plant response rating, Morningglory [14, 30]: 0
Morningglory plant response rating ([14]; 125 g ai/ha): 10
Morningglory plant response rating ([14]; 500 g ai/ha): 10
Plant response rating, Morningglory [14, 31]: 0
Plant response rating, Pigweed [15, 30]: 0
Pigweed plant response rating ([15]; 125 g ai/ha): 10
Pigweed plant response rating ([15]; 500 g ai/ha): 20
Plant response rating, Pigweed [15, 31]: 0
Plant response rating, Rice [16, 30]: 10
Plant response rating, Rice [16, 31]: 0
Plant response rating, Velvetleaf [17, 30]: 0
Velvetleaf plant response rating ([17]; 125 g ai/ha): 10
Velvetleaf plant response rating ([17]; 500 g ai/ha): 10
Plant response rating, Velvetleaf [17, 31]: 0
Blackgrass plant response rating ([18]; 125 g ai/ha): 0
Blackgrass plant response rating ([18]; 500 g ai/ha): 0
Wheat plant response rating [19]: 30
Oat, Wild plant response rating ([20]; 125 g ai/ha): 10
Oat, Wild plant response rating ([20]; 500 g ai/ha): 10
Rice plant response rating [21]: 0
Sedge, Umbrella plant response rating [22]: 70
Ducksalad plant response rating [23]: 0
Barnyardgrass plant response rating [24]: 20

— patent publication US20060069132A1, “Azolecarboxamide herbicides” (priority 2004, published 2006)
